According to patent US8796253B2, “Heteroaryl substituted pyrazole derivatives useful for treating hyper-proliferative disorders and diseases associated with angiogenesis” (Bayer Intellectual Property GmbH, priority 2007, dated 2014):

tested on: HCT-116 cells stably transfected with a Luciferase reporter gene under the control of HIF-responsive element; assay: HIF-Luciferase Assay; type: cell-based; settings: Homo sapiens, HCT-116, HIF-Luciferase Assay, HCT-116 reporter cells, overnight at 1% oxygen; group >10, unit inferred
Experimental: HCT-116 cells stably transfected with a Luciferase reporter gene under the control of HIF-responsive element were plated in white 96- or 384-well plates at 30,000 or 5,000 cells/well, respectively, in 50 μL/well media (RPMI with 10% fetal bovine serum and 100 μg/mL Hygromycin). Cells were incubated overnight at 37° C. in a humidified incubator containing 5% CO2 under normal oxygen. The next day test compounds were added to the wells at various concentrations (0-10 μM, 0.1% final DMSO concentration) and placed in a hypoxic chamber overnight at 1% oxygen. Following the exposure to hypoxic conditions, 50 μL/well of Bright Glo reagent (Promega, Wisconsin, USA) was added to the wells and luminescence was measured after 5 min. Cells incubated under normal oxygen levels were used as background control. […] Compounds that have IC50 values between 1 μM and 10 μM include those of Examples 8, 16, 38, 39, 40, 41, 42, 43, 47, 48, 53, 54, 56, 57, 66, 69, and 72.

| IC50 [nM] | SMILES |
| --- | --- |
| > 10000 | Cc1ccc(Cn2nc(-c3nc(-c4ccc(F)c(Br)c4)no3)cc2C)cc1 [Example 15, 3-(3-bromo-4-fluorophenyl)-5-[5-methyl-1-(4-methylbenzyl)-1H-pyrazol-3-yl]-1,2,4-oxadiazole] |
| > 10000 | Cc1ccc(Cn2nc(-c3nc4cc(C(C)(C)c5ccccc5)ccc4o3)cc2C)cc1 [Example 32, 2-[5-methyl-1-(4-methylbenzyl)-1H-pyrazol-3-yl]-5-(1-methyl-1-phenylethyl)-1,3-benzoxazole] |

same assay, conditions: Homo sapiens, HCT-116, HIF-Luciferase Assay, HCT-116 reporter cells, overnight at 1% oxygen; individual values

| IC50 [nM] | SMILES |
| --- | --- |
| 10 | Cc1ccc(Cn2nc(-c3nc(-c4ccc(C(C)(C)F)cc4)no3)cc2C)cc1 [Example 103, 3-[4-(1-fluoro-1-methylethyl)phenyl]-5-[5-methyl-1-(4-methylbenzyl)-1H-pyrazol-3-yl]-1,2,4-oxadiazole] |
| 20 | Cc1cc(-c2nc(-c3ccc(OC(F)(F)F)cc3)no2)nn1Cc1ccc(Cl)cc1 [Example 120, 5-[1-(4-Chlorobenzyl)-5-methyl-1H-pyrazol-3-yl]-3-[4-(trifluoromethoxy)phenyl]-1,2,4-oxadiazole] |
| 3 | Cc1ccc(Cn2nc(-c3nc4ccc(-c5ccc(Cl)cc5)cc4[nH]3)cc2C)cc1 [Example 64, 6-(4-chlorophenyl)-2-[5-methyl-1-(4-methylbenzyl)-1H-pyrazol-3-yl]-1H-benzimidazole] |
| 80 | Cc1ccc(Cn2nc(-c3nc(-c4ccc(N5CCCC5=O)cc4)no3)cc2C)cc1 [Example 24, 1-(4-{5-[5-Methyl-1-(4-methylbenzyl)-1H-pyrazol-3-yl]-1,2,4-oxadiazol-3-yl}phenyl)pyrrolidin-2-one] |
| 50 | Cc1ccc(Cn2nc(-c3nc(-c4ccc(C5CCCCC5)cc4)co3)cc2C)cc1 [Example 81, 4-(4-Cyclohex-1-ylphenyl)-2-[5-methyl-1-(4-methylbenzyl)-1H-pyrazol-3-yl]-1,3-oxazole] |
| 40 | Cc1ccc(Cn2nc(-c3nc(-c4ccc(Cn5cccc5)cc4)no3)cc2C)cc1 [Example 140, 5-[5-Methyl-1-(4-methylbenzyl)-1H-pyrazol-3-yl]-3-[4-(1H-pyrrol-1-yl-methyl)phenyl]-1,2,4-oxadiazole] |
| 20 | Cc1ccc(Cn2nc(-c3nc(-c4ccc(C(C)(C)C)cc4)co3)cc2C)cc1 [Example 77, 4-(4-tert-Butylphenyl)-2-[5-methyl-1-(4-methylbenzyl)-1H-pyrazol-3-yl]-1,3-oxazole] |
| 8 | Cc1ccc(Cn2nc(-c3nc(-c4ccc(-c5ccccc5)cc4)c[nH]3)cc2C)cc1 [Example 67, 3-(4-biphenyl-4-yl-1H-imidazol-2-yl)-5-methyl-1-(4-methylbenzyl)-1H-pyrazole] |
| 5 | Cc1ccc(Cn2nc(-c3nc4ccc(-c5ccc(F)cc5)cc4[nH]3)cc2C)cc1 [Example 59, 6-(4-Fluorophenyl)-2-[5-methyl-1-(4-methylbenzyl)-1H-pyrazol-3-yl]-1H-benzimidazole] |

same assay, conditions: Homo sapiens, HCT-116, HIF-Luciferase Assay, HCT-116 reporter cells, overnight at 1% oxygen; potency groups

| SMILES | IC50 [nM] |
| --- | --- |
| Cc1ccc(Cn2nc(-c3nc(-c4ccc(C5CCCCC5)cc4)no3)cc2C)cc1 [Example 11, 3-(4-cyclohexylphenyl)-5-[5-methyl-1-(4-methylbenzyl)-1H-pyrazol-3-yl]-1,2,4-oxadiazole] | ≤ 1000 |
| Cc1ccc(Cn2nc(-c3nc(-c4ccc(C(F)(F)F)cc4)no3)cc2C)cc1 [Example 7, 5-[5-methyl-1-(4-methylbenzyl)-1H-pyrazol-3-yl]-3-[4-(trifluoromethyl)phenyl]-1,2,4-oxadiazole] | ≤ 1000 |
| Cc1ccc(Cn2nc(-c3nc4ccc(-c5ccccc5)cc4[nH]3)cc2C)cc1 [Example 45, 2-[5-methyl-1-(4-methylbenzyl)-1H-pyrazol-3-yl]-6-phenyl-1H-benzimidazole] | ≤ 1000 |
| Cc1ccc(Cn2nc(-c3nc4ccncc4[nH]3)cc2C)cc1 [Example 42, 2-[5-methyl-1-(4-methylbenzyl)-1H-pyrazol-3-yl]-3H-imidazo[4,5-c]pyridine] | 1000 to 10000 |
| Cc1ccc(Cn2nc(-c3nc(-c4ccncc4)no3)cc2C)cc1 [Example 14, 4-{5-[5-Methyl-1-(4-methylbenzyl)-1H-pyrazol-3-yl]-1,2,4-oxadiazol-3-yl}pyridine] | ≤ 1000 |
| Cc1ccc(Cn2nc(-c3nc4ccc(N5CCCCC5)cc4[nH]3)cc2C)cc1 [Example 49, 2-[5-methyl-1-(4-methylbenzyl)-1H-pyrazol-3-yl]-6-piperidin-1-yl-1H-benzimidazole] | ≤ 1000 |
| Cc1ccc(Cn2nc(-c3nc(-c4ccccc4)no3)cc2C)cc1 [Example 9, 5-[5-methyl-1-(4-methylbenzyl)-1H-pyrazol-3-yl]-3-phenyl-1,2,4-oxadiazole] | ≤ 1000 |
| Cc1ccc(Cn2nc(-c3nc(-c4ccc(F)cc4)no3)cc2C)cc1 [Example 10, 3-(4-fluorophenyl)-5-[5-methyl-1-(4-methylbenzyl)-1H-pyrazol-3-yl]-1,2,4-oxadiazole] | ≤ 1000 |
| Cc1ccc(Cn2nc(-c3nc4ccccc4[nH]3)cc2C)cc1 [Example 38, 2-[5-methyl-1-(4-methylbenzyl)-1H-pyrazol-3-yl]-1H-benzimidazole] | 1000 to 10000 |
| Cc1ccc(Cn2nc(-c3nc4ccccc4o3)cc2C)cc1 [Example 31, 2-[5-methyl-1-(4-methylbenzyl)-1H-pyrazol-3-yl]-1,3-benzoxazole] | ≤ 1000 |
| Cc1ccc(Cn2nc(-c3nc(-c4ccc(N5CCCC5=O)cc4)no3)cc2C)cc1 [Example 24, 1-(4-{5-[5-Methyl-1-(4-methylbenzyl)-1H-pyrazol-3-yl]-1,2,4-oxadiazol-3-yl}phenyl)pyrrolidin-2-one] | ≤ 1000 |
| Cc1ccc(Cn2nc(-c3nc4cc(-c5cccc(F)c5)ccc4o3)cc2C)cc1 [Example 34, 5-(3-fluorophenyl)-2-[5-methyl-1-(4-methylbenzyl)-1H-pyrazol-3-yl]-1,3-benzoxazole] | ≤ 1000 |
| Cc1ccc(Cn2nc(-c3nc(-c4ccc(OCc5ccc(Cl)cc5)cc4)no3)cc2C)cc1 [Example 2, 3-{4-[(4-chlorobenzyl)oxy]phenyl}-5-[5-methyl-1-(4-methylbenzyl)-1H-pyrazol-3-yl]-1,2,4-oxadiazole] | ≤ 1000 |

Further lines, results first:

| IC50 [nM] | SMILES |
| --- | --- |
| 1000 to 10000 | Cc1ccc(Cn2nc(C3=NC(Cc4ccc(Cl)cc4)CO3)cc2C)cc1 (stereo not shown) [Example 72, 4-(4-chlorobenzyl)-2-[5-methyl-1-(4-methylbenzyl)-1H-pyrazol-3-yl]-4,5-dihydro-1,3-oxazole] |
| ≤ 1000 | Cc1ccc(Cn2nc(-c3nc4ccc(-c5ccc(Cl)cc5)cc4[nH]3)cc2C)cc1 [Example 64, 6-(4-chlorophenyl)-2-[5-methyl-1-(4-methylbenzyl)-1H-pyrazol-3-yl]-1H-benzimidazole] |
| ≤ 1000 | Cc1ccc(Cn2nc(-c3nc4ccc(-c5ccccc5F)cc4[nH]3)cc2C)cc1 [Example 60, 6-(2-fluorophenyl)-2-[5-methyl-1-(4-methylbenzyl)-1H-pyrazol-3-yl]-1H-benzimidazole] |
| ≤ 1000 | Cc1ccc(Cn2nc(-c3nc(-c4ccc(OC(F)(F)F)cc4)c[nH]3)cc2C)cc1 [Example 65, 5-Methyl-1-(4-methylbenzyl)-3-{4-[4-(trifluoromethoxy)phenyl]-1H-imidazol-2-yl}-1H-pyrazole] |
| 1000 to 10000 | Cc1ccc(Cn2nc(-c3nc4ccc(N5CCOCC5)cc4[nH]3)cc2C)cc1 [Example 53, 2-[5-methyl-1-(4-methylbenzyl)-1H-pyrazol-3-yl]-6-morpholin-4-yl-1H-benzimidazole] |
| ≤ 1000 | Cc1ccc(Cn2nc(-c3nc(-c4ccc(C(C)(C)C)cc4)co3)cc2C)cc1 [Example 77, 4-(4-tert-Butylphenyl)-2-[5-methyl-1-(4-methylbenzyl)-1H-pyrazol-3-yl]-1,3-oxazole] |
| ≤ 1000 | Cc1ccc(Cn2nc(-c3nc(-c4ccc(-c5ccccc5)cc4)c[nH]3)cc2C)cc1 [Example 67, 3-(4-biphenyl-4-yl-1H-imidazol-2-yl)-5-methyl-1-(4-methylbenzyl)-1H-pyrazole] |
| 1000 to 10000 | Cc1ccc(Cn2nc(C3=NC(c4ccccc4)CO3)cc2C)cc1 (stereo not shown) [Example 69, 2-[5-Methyl-1-(4-methylbenzyl)-1H-pyrazol-3-yl]-4-phenyl-4,5-dihydro-1,3-oxazole] |
| ≤ 1000 | Cc1ccc(Cn2nc(-c3nc(-c4ccc(-c5ccc(Cl)cc5)cc4)co3)cc2C)cc1 [Example 76, 4-(4′-chlorobiphenyl-4-yl)-2-[5-methyl-1-(4-methylbenzyl)-1H-pyrazol-3-yl]-1,3-oxazole] |
| ≤ 1000 | Cc1ccc(Cn2nc(-c3nc4ccc(-c5ccc(F)cc5)cc4[nH]3)cc2C)cc1 [Example 59, 6-(4-Fluorophenyl)-2-[5-methyl-1-(4-methylbenzyl)-1H-pyrazol-3-yl]-1H-benzimidazole] |
